From US10213433B2 (AbbVie Inc., priority 2010, dated 2019)

These compounds were tested against Bcl-2 protein (Homo sapiens (Human), UniProt P10415) (assay: Bcl-2 binding TR-FRET (Time-Resolved Fluorescence-Resonance-Energy-Transfer) assay). Conditions: inhibition constant for binding to Bcl-2 protein.
Sequence of Bcl-2 protein (P10415 whole entry): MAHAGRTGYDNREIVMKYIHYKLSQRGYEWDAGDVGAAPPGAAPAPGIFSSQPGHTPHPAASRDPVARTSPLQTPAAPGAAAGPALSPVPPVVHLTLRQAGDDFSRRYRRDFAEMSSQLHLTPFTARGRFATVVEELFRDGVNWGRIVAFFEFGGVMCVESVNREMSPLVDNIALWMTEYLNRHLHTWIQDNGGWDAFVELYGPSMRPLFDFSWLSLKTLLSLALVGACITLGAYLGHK
Source text: The smaller the Ki value, the greater is the binding affinity.
Compound `CC(C)N1CCC2(CCC(c3ccc(Cl)cc3)=C(CN3CCN(c4ccc(C(=O)NS(=O)(=O)c5cnc(OCC6CCOCC6)c(Cl)c5)c(Oc5cnc6[nH]ccc6c5)c4)CC3)C2)CC1` [Compound 268, 4-(4-{[9-(4-chlorophenyl)-3-isopropyl-3-azaspiro[5.5]undec-8-en-8-yl]methyl}piperazin-1-yl)-N-{[5-chloro-6-(tetrahydro-2H-pyran-4-ylmethoxy)pyridin-3-yl]sulfonyl}-2-(1H-pyrrolo[2,3-b]pyridin-5-yloxy)benzamide] has a Ki of less than 10 pM. `CN(C)CC(=O)N1CCC(F)(COc2ncc(S(=O)(=O)NC(=O)c3ccc(N4CCN(CC5=C(c6ccc(Cl)cc6)CC(C)(C)CC5)CC4)cc3Oc3cnc4[nH]ccc4c3)cc2Cl)CC1` [Compound 270, N-[(5-chloro-6-{[1-(N,N-dimethylglycyl)-4-fluoropiperidin-4-yl]methoxy}pyridin-3-yl)sulfonyl]-4-(4-{[2-(4-chlorophenyl)-4,4-dimethylcyclohex-1-en-1-yl]methyl}piperazin-1-yl)-2-(1H-pyrrolo[2,3-b]pyridin-5-yloxy)benzamide] showed a Ki of less than 10 pM. Compound `CC1(C)CCC(CN2CCN(c3ccc(C(=O)NS(=O)(=O)c4ccc(OCCOC5CCOC5)c([N+](=O)[O-])c4)c(Oc4cnc5[nH]ccc5c4)c3)CC2)=C(c2ccc(Cl)cc2)C1` (stereo not shown) [Compound 275, 4-(4-{[2-(4-chlorophenyl)-4,4-dimethylcyclohex-1-en-1-yl]methyl}piperazin-1-yl)-N-({3-nitro-4-[2-(tetrahydrofuran-3-yloxy)ethoxy]phenyl}sulfonyl)-2-(1H-pyrrolo[2,3-b]pyridin-5-yloxy)benzamide] has a Ki of less than 10 pM. With `CC1(C)CCC(CN2CCN(c3ccc(C(=O)NS(=O)(=O)c4cnc(OCC5(F)CCN(C(CF)CF)CC5)c(Cl)c4)c(Oc4cnc5[nH]ccc5c4)c3)CC2)=C(c2ccc(Cl)cc2)C1` [Compound 282, N-[(5-chloro-6-{[1-(1,3-difluoropropan-2-yl)-4-fluoropiperidin-4-yl]methoxy}pyridin-3-yl)sulfonyl]-4-(4-{[2-(4-chlorophenyl)-4,4-dimethylcyclohex-1-en-1-yl]methyl}piperazin-1-yl)-2-(1H-pyrrolo[2,3-b]pyridin-5-yloxy)benzamide] the Ki was less than 10 pM. With `CN1CCC(F)(COc2ccc(S(=O)(=O)NC(=O)c3ccc(N4CCN(CC5=C(c6ccc(Cl)cc6)CC(C)(C)CC5)CC4)cc3Oc3cnc4[nH]ccc4c3)cc2Cl)CC1` [Compound 283, N-({3-chloro-4-[(4-fluoro-1-methylpiperidin-4-yl)methoxy]phenyl}sulfonyl)-4-(4-{[2-(4-chlorophenyl)-4,4-dimethylcyclohex-1-en-1-yl]methyl}piperazin-1-yl)-2-(1H-pyrrolo[2,3-b]pyridin-5-yloxy)benzamide] the Ki was less than 10 pM. Compound `CC1(C)CCC(CN2CCN(c3ccc(C(=O)NS(=O)(=O)c4cnc(OCC5(F)CCN(CC(F)F)CC5)c(Cl)c4)c(Oc4cnc5[nH]ccc5c4)c3)CC2)=C(c2ccc(Cl)cc2)C1` [Compound 285, N-[(5-chloro-6-{[1-(2,2-difluoroethyl)-4-fluoropiperidin-4-yl]methoxy}pyridin-3-yl)sulfonyl]-4-(4-{[2-(4-chlorophenyl)-4,4-dimethylcyclohex-1-en-1-yl]methyl}piperazin-1-yl)-2-(1H-pyrrolo[2,3-b]pyridin-5-yloxy)benzamide] has a Ki of less than 10 pM. `CC1CN(c2ccc(C(=O)NS(=O)(=O)c3ccc(NCC4CCOCC4)c([N+](=O)[O-])c3)c(Oc3cnc4[nH]ccc4c3)c2)CCN1CC1=C(c2ccc(Cl)cc2)CC(C)(C)CC1` (stereo not shown) [Compound 290, 4-(4-{[2-(4-chlorophenyl)-4,4-dimethylcyclohex-1-en-1-yl]methyl}-3-methylpiperazin-1-yl)-N-({3-nitro-4-[(tetrahydro-2H-pyran-4-ylmethyl)amino]phenyl}sulfonyl)-2-(1H-pyrrolo[2,3-b]pyridin-5-yloxy)benzamide] was tested, and the Ki was less than 10 pM. For `CC1(C)CCC(CN2CCN(c3ccc(C(=O)NS(=O)(=O)c4ccc(NCCCNC5CC5)c([N+](=O)[O-])c4)c(Oc4cnc5[nH]ccc5c4)c3)CC2)=C(c2ccc(Cl)cc2)C1` [Compound 291, 4-(4-{[2-(4-chlorophenyl)-4,4-dimethylcyclohex-1-en-1-yl]methyl}piperazin-1-yl)-N-[(4-{[3-(cyclopropylamino)propyl]amino}-3-nitrophenyl)sulfonyl]-2-(1H-pyrrolo[2,3-b]pyridin-5-yloxy)benzamide], the Ki was less than 10 pM. With `CN(C)CC(=O)N1CCC(COc2ccc(S(=O)(=O)NC(=O)c3ccc(N4CCN(CC5=C(c6ccc(Cl)cc6)CC(C)(C)CC5)CC4)cc3Oc3cnc4[nH]ccc4c3)cc2Cl)CC1` [Compound 295, N-[(3-chloro-4-{[1-(N,N-dimethylglycyl)piperidin-4-yl]methoxy}phenyl)sulfonyl]-4-(4-{[2-(4-chlorophenyl)-4,4-dimethylcyclohex-1-en-1-yl]methyl}piperazin-1-yl)-2-(1H-pyrrolo[2,3-b]pyridin-5-yloxy)benzamide] the Ki was less than 10 pM. Work on `COC(=O)N1CCOC(CNc2ccc(S(=O)(=O)NC(=O)c3ccc(N4CCN(CC5=C(c6ccc(Cl)cc6)CC(C)(C)CC5)CC4)cc3Oc3cnc4[nH]ccc4c3)cc2[N+](=O)[O-])C1` (stereo not shown) [Compound 317, methyl 2-{[(4-{[4-(4-{[2-(4-chlorophenyl)-4,4-dimethylcyclohex-1-en-1-yl]methyl}piperazin-1-yl)-2-(1H-pyrrolo[2,3-b]pyridin-5-yloxy)benzoyl]sulfamoyl}-2-nitrophenyl)amino]methyl}morpholine-4-carboxylate] yielded a Ki of less than 10 pM. In the case of `CCN(C)C(=O)N1CCOC(CNc2ccc(S(=O)(=O)NC(=O)c3ccc(N4CCN(CC5=C(c6ccc(Cl)cc6)CC(C)(C)CC5)CC4)cc3Oc3cnc4[nH]ccc4c3)cc2[N+](=O)[O-])C1` (stereo not shown) [Compound 318, 2-{[(4-{[4-(4-{[2-(4-chlorophenyl)-4,4-dimethylcyclohex-1-en-1-yl]methyl}piperazin-1-yl)-2-(1H-pyrrolo[2,3-b]pyridin-5-yloxy)benzoyl]sulfamoyl}-2-nitrophenyl)amino]methyl}-N-ethyl-N-methylmorpholine-4-carboxamide], the Ki is reported as less than 10 pM. In the case of `CC1(C)CCC(CN2CCN(c3ccc(C(=O)NS(=O)(=O)c4ccc(NCC5CN(S(C)(=O)=O)CCO5)c([N+](=O)[O-])c4)c(Oc4cnc5[nH]ccc5c4)c3)CC2)=C(c2ccc(Cl)cc2)C1` (stereo not shown) [Compound 319, 4-(4-{[2-(4-chlorophenyl)-4,4-dimethylcyclohex-1-en-1-yl]methyl}piperazin-1-yl)-N-{[4-({[4-(methylsulfonyl)morpholin-2-yl]methyl}amino)-3-nitrophenyl]sulfonyl}-2-(1H-pyrrolo[2,3-b]pyridin-5-yloxy)benzamide], the Ki is reported as less than 10 pM. `CC1(C)CCC(CN2CCN(c3ccc(C(=O)NS(=O)(=O)c4ccc(NCCCN(C5CCC5)C5CC5)c([N+](=O)[O-])c4)c(Oc4cnc5[nH]ccc5c4)c3)CC2)=C(c2ccc(Cl)cc2)C1` [Compound 320, 4-(4-{[2-(4-chlorophenyl)-4,4-dimethylcyclohex-1-en-1-yl]methyl}piperazin-1-yl)-N-{[4-({3-[cyclobutyl(cyclopropyl)amino]propyl}amino)-3-nitrophenyl]sulfonyl}-2-(1H-pyrrolo[2,3-b]pyridin-5-yloxy)benzamide] was tested, and the Ki was less than 10 pM.
